Measurements reported in US9175030B2, “Derivatives of avicin D and methods of making and using thereof” (priority 2012, dated 2015).
pIC50: −log10 of the molar value.

Assays:
MINO = experiment: MTT growth inhibition, MINO; format: cell-based; conditions: Homo sapiens, MINO cells, 72 hrs
Experimental: (§1) The growth inhibitory effects of avicin D and oxetane derivative were measured using the MTT [3-(4,5-dimethylthiazol-2-yl)-2,5-diphenyl tetrazolium bromide] reduction assay as described in Haridas et al. (2001). Cells were cultured with varying concentrations of avicin D or oxetane in 96-well plates for 72 hrs at 37° C. At the end of 72 hrs, cells were stained with MTT for 2 hrs and then incubated with lysis buffer (20% SDS in 50% N,N-dimethylformamide) for another 6 hrs. Optical density at 570 nm was used as a measure of cell viability.
(§2) The cell lines 769P, A498, CAKI-1, and CAKI-2 are derived from primary human renal-cell cancers (RCC). A549 is a human lung adenocarcinoma epithelial cell line. B16F10 is a mouse melanoma cell line. BT474, BT 474 M1, BT549, MCF7, […], and ZR751 are breast cancer cell lines. CCRF-CEM, Jurkat, and MOLT4 are leukemia cell lines. HELA is cell line derived from cervical caner. HepG2 is a human hepatocellular liver carcinoma cell line. JeKo-1 is a mantle cell lymphoma (MCL) cell line. LnCAP is a cell line was established from a metastatic lesion of human prostatic adenocarcinoma. MM.1 and RPMI-8226 are human multiple myeloma cell lines. OVCAR3 and SKOV3 are ovarian cancer cell lines. Panc-1 is a pancreatic cancer cell line. PC3 is a prostate cancer cell line. Raji is a Burkitt's lymphoma cell line. RL is a non-Hodgkin's lymphoma cell line. […]

BT474 M1 = experiment: MTT growth inhibition, BT474 M1; format: cell-based; conditions: Homo sapiens, BT474M1, BT474 M1 cells, 72 hrs
Experimental: as §1, §2

LnCAP = experiment: MTT growth inhibition, LnCAP; format: cell-based, human; conditions: Homo sapiens, LnCAP cells, 72 hrs
Experimental: as §1, §2

HEK293 = experiment: MTT growth inhibition, HEK293; format: cell-based, human; conditions: Homo sapiens, HEK293 cells, 72 hrs
Experimental: as §1, §2

GM0131 = experiment: MTT growth inhibition, GM0131; format: cell-based; conditions: GM0131 wild type human fibroblast cells, 72 hrs
Experimental: as §1, §2

U266 = experiment: MTT growth inhibition, U266; format: cell-based; conditions: Homo sapiens, U-266, U266 cells, 72 hrs
Experimental: as §1, §2

Panc-1 = experiment: MTT growth inhibition, Panc-1; format: cell-based; conditions: Homo sapiens, Panc-1 cells, 72 hrs
Experimental: as §1, §2

SKOV3 = experiment: MTT growth inhibition, SKOV3; format: cell-based; conditions: Homo sapiens, SK-OV-3, SKOV3 cells, 72 hrs
Experimental: as §1, §2

RL = experiment: MTT growth inhibition, RL; format: cell-based; conditions: Homo sapiens, RL cells, 72 hrs
Experimental: as §1, §2

CAKI-1 = experiment: MTT growth inhibition, CAKI-1; format: cell-based, human; conditions: Homo sapiens, CAKI-1 cells, 72 hrs
Experimental: as §1, §2

BT474 = experiment: MTT growth inhibition, BT474; format: cell-based; conditions: Homo sapiens, BT-474, BT474 cells, 72 hrs
Experimental: as §1, §2

RPMI 8226 = experiment: MTT growth inhibition, RPMI 8226; format: cell-based, human; conditions: Homo sapiens, RPMI 8226 cells, 72 hrs
Experimental: as §1, §2

MM1 = experiment: MTT growth inhibition, MM1; format: cell-based, human; conditions: Homo sapiens, MM1 cells, 72 hrs
Experimental: as §1, §2

3T3 L1 = experiment: MTT growth inhibition, 3T3 L1; format: cell-based; conditions: Mus musculus, 3T3 L1 fibroblast cells, 72 hrs
Experimental: as §1, §2

JEKO-1 = experiment: MTT growth inhibition, JEKO-1; format: cell-based; conditions: Homo sapiens, JEKO-1 cells, 72 hrs
Experimental: as §1, §2

HS27 = experiment: MTT growth inhibition, HS27; format: cell-based; conditions: HS27 human foreskin fibroblast cells, 72 hrs
Experimental: as §1, §2

BT549 = experiment: MTT growth inhibition, BT549; format: cell-based; conditions: Homo sapiens, BT-549, BT549 cells, 72 hrs
Experimental: as §1, §2

CCRF-CEM = experiment: MTT growth inhibition, CCRF-CEM; format: cell-based; conditions: Homo sapiens, CCRF-CEM cells, 72 hrs
Experimental: as §1, §2

769P = experiment: MTT growth inhibition, 769P; format: cell-based, human; conditions: Homo sapiens, 769P cells, 72 hrs
Experimental: as §1, §2

Hela = experiment: MTT growth inhibition, Hela; format: cell-based; conditions: Homo sapiens, Hela cells, 72 hrs
Experimental: as §1, §2

CAKI-2 = experiment: MTT growth inhibition, CAKI-2; format: cell-based, human; conditions: Homo sapiens, CAKI-2 cells, 72 hrs
Experimental: as §1, §2

PC3 = experiment: MTT growth inhibition, PC3; format: cell-based; conditions: Homo sapiens, PC-3, PC3 cells, 72 hrs
Experimental: as §1, §2

WSU-DLCL2 = experiment: MTT growth inhibition, WSU-DLCL2; format: cell-based, human; conditions: Homo sapiens, WSUDLCL2, WSU-DLCL2 cells, 72 hrs
Experimental: as §1, §2

Nrf2 = Nrf2 activation, ARE-driven luciferase in Hep G2 cells; format: cell-based, human; conditions: Hep G2 cells transfected with hARE-luc, luciferase activity
Experimental: Activation of Nrf2 was assessed by measuring the antioxidant response element (ARE)-mediated gene expression as described previously by Haridas et al., 2004, which is incorporated herein by reference. Briefly, ARE is a cis-acting regulatory sequence identified in the promoter region of several genes encoding phase 2 detoxification enzymes, that binds to Nrf2. Hep G2 (human hepatocarcinoma) cells were transfected with a human ARE-driven luciferase (luc) containing plasmid, hARE-luc. Following exposure to avicin D/compound 8, the luciferase activity induced in these cells was measured using a dual-luciferase assay kit (Promega) according to the manufacturer's protocol.

Jurkat = experiment: MTT growth inhibition, Jurkat; format: cell-based, human; conditions: Homo sapiens, Jurkat cells, 72 hrs (Table 5)
Experimental: as §1, §2

U2OS = experiment: MTT growth inhibition, U2OS; format: cell-based, human; conditions: Homo sapiens, U2OS cells, 72 hrs
Experimental: as §1, §2

B16F10 = experiment: MTT growth inhibition, B16F10; format: cell-based, mouse; conditions: Mus musculus, B16-F10, B16F10 cells, 72 hrs
Experimental: as §1, §2

Raji = experiment: MTT growth inhibition, Raji; format: cell-based; conditions: Homo sapiens, Raji cells, 72 hrs
Experimental: as §1, §2

HepG2 = experiment: MTT growth inhibition, HepG2; format: cell-based, human; conditions: Homo sapiens, HepG2 cells, 72 hrs
Experimental: as §1, §2

[1] = test system: Jurkat (human T-cell leukemia) cells; experiment: Reduction in cell viability, Jurkat cells (Table 6); format: cell-based; conditions: Homo sapiens, 50% reduction in cell viability
Source text: The IC50 values indicate the concentrations of avicin D/compound 8 required to induce a 50% reduction in call viability. These studies were done in Jurkat (human T-cell leukemia) cells and have been described previously in Haridas et al., 2001, which is incorporated herein by reference.

ZR751 = experiment: MTT growth inhibition, ZR751; format: cell-based; conditions: Homo sapiens, ZR-75-1, ZR751 cells, 72 hrs
Experimental: as §1, §2

A549 = experiment: MTT growth inhibition, A549; format: cell-based, human; conditions: Homo sapiens, A549 cells, 72 hrs
Experimental: as §1, §2

OVCAR3 = experiment: MTT growth inhibition, OVCAR3; format: cell-based; conditions: Homo sapiens, OVCAR-3, OVCAR3 cells, 72 hrs
Experimental: as §1, §2

MCF7 = experiment: MTT growth inhibition, MCF7; format: cell-based; conditions: Homo sapiens, MCF7 cells, 72 hrs
Experimental: as §1, §2

MOLT4 = experiment: MTT growth inhibition, MOLT4; format: cell-based; conditions: Homo sapiens, MOLT-4, MOLT4 cells, 72 hrs
Experimental: as §1, §2

A498 = experiment: MTT growth inhibition, A498; format: cell-based, human; conditions: Homo sapiens, A498 cells, 72 hrs
Experimental: as §1, §2

Structure (SMILES): C=CC(C)(O)CCC1OCC1C(=O)O[C@@H]1C(C)O[C@@H](O[C@](C)(C=C)CC/C=C(\CO)C(=O)O[C@H]2C[C@@]3(C(=O)O[C@@H]4OC(CO)[C@@H](O)C(O)C4O[C@@H]4OC(C)[C@H](O[C@@H]5O[C@@H](CO)[C@H](O)[C@@H]5O)C(O[C@@H]5OC(CO)[C@@H](O)C(O)C5O)C4O)C(CC2(C)C)C2=CCC4[C@@]5(C)CC[C@H](O[C@@H]6OC(CO[C@@H]7OC(C)[C@H](O)C(O)C7O[C@@H]7OC[C@@H](O)C(O)C7O)[C@@H](O)C(O)C6NC(C)=O)C(C)(C)C5CC[C@@]4(C)[C@]2(C)C[C@H]3O)C(O)C1O (stereo partly drawn) [Compound 8]
- pIC50 (MINO): 7.22
- pIC50 (BT474 M1): 6.15
- pIC50 (LnCAP): 6.72
- pIC50 (HEK293): 5.17
- pIC50 (GM0131): 4.92
- pIC50 (U266): 7.10
- pIC50 (Panc-1): 6.51
- pIC50 (SKOV3): 6.38
- pIC50 (RL): 7.10
- pIC50 (CAKI-1): 6.55
- pIC50 (BT474): 6.05
- pIC50 (RPMI 8226): 6.80
- pIC50 (MM1): 7.52
- pIC50 (3T3 L1): 6.10
- pIC50 (JEKO-1): 6.80
- pIC50 (HS27): 5.60
- pIC50 (BT549): 5.85
- pIC50 (CCRF-CEM): 6.20
- pIC50 (769P): 6.82
- pIC50 (Hela): 5.73
- pIC50 (CAKI-2): 6.31
- pIC50 (PC3): 6.72
- pIC50 (WSU-DLCL2): 6.85
- Fold Nrf2 activation (Nrf2): 0.98
- pIC50 (Jurkat): 7.05
- pIC50 (U2OS): 5.92
- pIC50 (B16F10): 6.85
- pIC50 (Raji): 6.21
- pIC50 (HepG2): 6.51
- pIC50 [1]: 7.40
- pIC50 (ZR751): 6.47
- pIC50 (A549): 5.92
- pIC50 (OVCAR3): 6.68
- pIC50 (MCF7): 5.59
- pIC50 (MOLT4): 6.70
- pIC50 (A498): 6.66
